Data on 21 compounds can be found in patent publication US8772481B2, “Aza- and diaza-phthalazine compounds as P38 map kinase modulators and methods of use thereof” (Amgen Inc., priority 2008, dated 2014).

One experiment has as its target human p38α (Homo sapiens (Human), UniProt Q16539). Description: Purified and activated recombinant human p38α HTRF assay. The note with it: 50 μM ATP, read-out: p38a IC50. The format is biochemical. The method, then: Purified and Activated Recombinant Human p38α Assay
Kinase reaction buffer for p38α HTRF assays consists of 50 mM Tris-pH 7.5, 5 mM MgCl2, 0.1 mg/mL BSA, 100 μM Na3VO4 and 0.5 mM DTT.
HTRF detection buffer contains 100 mM HEPES-pH 7.5, 100 mM NaCl, 0.1% BSA, 0.05% Tween-20, and 10 mM EDTA.
Serial Dilution of Compounds:
Compounds were dissolved in 100% DMSO and serially diluted (3 fold, 10 point) in a polypropylene 96-well microtiter plate (drug plate). The final starting concentration of compounds in the p38α enzymatic assays was 1 μM. Columns 6 and 12 (HI controls and LO controls respectively) in the drug plate were reserved as controls and contained only DMSO.
The p38α kinase reactions were carried out in a polypropylene 96-well black round bottom assay plate in total volume of 30 μL kinase reaction buffer. Appropriate concentration of purified and activated enzyme (recombinant human) was mixed with indicated concentration of ATP and 100 nM GST-ATF2-Avitag, in the presence or absence (HI control) of Compound. See table below for actual concentrations. In the absence of substrate, the background was measured as LO control. The reaction was allowed to incubate for 1 hour at RT.
Assay Reagent Concentrations:
The final reagent concentrations were 1 nM p38α and 50 μM ATP.
After 60 minutes incubation at room temperature, the assay plate was read in a Discovery Plate Reader. The wells were excited with coherent 320 nm light and the ratio of delayed ([…] post excitation) emissions at […] (native europium fluorescence) and 665 nm (europium fluorescence transferred to allophycocyanin—an index of substrate phosphorylation) was determined (Park et al, 1999).
The proportion of substrate phosphorylated in the kinase reaction in the presence of compound compared with that phosphorylated in the presence of DMSO vehicle alone (HI control) was calculated using the formula: % control (POC)=(compound−average LO)/(average HI−average LO)*100. Data (consisting of POC and inhibitor concentration in μM) was fitted to a 4-parameter equation (y=A+((B−A)/(1+((x/C)^D))), where A is the minimum y (POC) value, B is the maximum y (POC), C is the x (compound concentration) at the point of inflection and D is the slope factor, using a Levenburg-Marquardt non-linear regression algorithm.
The inhibition constant (Ki) of the inhibitor was estimated from the IC50 (compound concentration at the point of inflection C) using the Cheng-Prussof equation: Ki=IC50/(1+S/Km), where S is the ATP substrate concentration, and Km is the Michaelis constant for ATP as determined experimentally. All results were expressed as the mean±the standard error of the mean. Data acquisition and non-linear regression algorithms were performed using Activity Base v5.2 and XL-fit software v4.1 respectively. All data was archived using Activity Base v5.2 software.
For orientation: In TR-FRET formats the signal depends on donor and acceptor labels being close together.

Experiment [1] deals with TNF-α induced IL-8 in human whole blood. Description: Inhibition of TNF-α induced IL-8 in 50% human whole blood. The format is cell-based. The conditions noted are these: 1 nM TNF-α, secreted IL-8, read-out: WB TNF/IL8 IC50. The protocol: Inhibition of TNF-α Induced IL-8 in 50% Human Whole Blood
Test compounds were evaluated in vitro for the ability to inhibit the production of secreted IL-8 by whole blood activated with TNF-α. Fresh human whole blood was obtained from healthy, non-medicated volunteers in sodium heparin tubes.
Compound Dilution—Assay Procedure
Test compounds are serially diluted 1:3 in DMSO and then diluted 1:250 into R10 (RPMI 1640, 10% human serum AB, 1× pen/strep/glutamine) to the 4× working concentration to be used in the assay. 100 ul heparinized whole blood is plated into wells of 96 well flat bottom plates. 50 ul of either 4× compound or DMSO control (Final DMSO concentration is 0.1%) are added to the appropriate wells. Plates are incubated for 1 hour at 37 degrees Celsius. 50 ul of 4×TNF-α (4 nM TNF-α, for a final concentration of 1 nM) or control (media alone) is added to the appropriate wells (Total volume=200 ul). Plates are incubated overnight (16-18 hours). 100 ul of supernatant is collected and stored in 96-well round bottom polypropylene plates at −80 degrees Celsius or assayed immediately for IL-8.
Cytokines are measured on antibody (Ab) sandwich ECL based 96-well detection plates. 20 ul of supernatant are added to plate and plate is sealed and shaken at RT for 1 hour. 130 ul of detection Ab cocktail is added and plates are sealed and shaken for 1 hour in the dark at RT. Plates are read on MSD Sector HTS instrument. Data are analyzed and IC50 values generated using Activity Base and Xl-fit programs.

Sequence of human p38α (Q16539 whole entry): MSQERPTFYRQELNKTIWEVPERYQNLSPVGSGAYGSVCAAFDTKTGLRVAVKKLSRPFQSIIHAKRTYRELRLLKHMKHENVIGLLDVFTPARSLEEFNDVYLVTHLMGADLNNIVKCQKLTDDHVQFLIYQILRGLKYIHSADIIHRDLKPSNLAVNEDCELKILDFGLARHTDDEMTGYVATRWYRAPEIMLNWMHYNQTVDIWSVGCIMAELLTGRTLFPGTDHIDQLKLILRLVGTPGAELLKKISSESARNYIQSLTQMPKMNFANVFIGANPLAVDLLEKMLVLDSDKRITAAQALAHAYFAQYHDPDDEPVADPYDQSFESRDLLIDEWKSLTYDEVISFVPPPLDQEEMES

With `Cc1cc(F)ccc1Oc1ccc2c(-c3ccccc3C)nncc2n1` [Example 22, 2-(4-fluoro-2-methylphenoxy)-5-(2-methylphenyl)pyrido[2,3-d]pyridazine], the IC50 at human p38α amounted to 168 nM; in experiment [1] it was 620 nM.
Regarding `Fc1ccc(Nc2ccc3c(N4CCOCC4)nncc3n2)c(F)c1` [Example 3, N-(2,4-difluorophenyl)-5-(4-morpholinyl)pyrido[2,3-d]pyridazin-2-amine], the IC50 on human p38α worked out at 4 nM; in experiment [1], 7.6 nM.
Regarding `Fc1ccc(Nc2ccc3c(-c4ccc(F)cc4F)nncc3n2)c(F)c1` [Example 10, N,5-bis(2,4-difluorophenyl)pyrido[2,3-d]pyridazin-2-amine], the results for the IC50 (on human p38α; in experiment [1]) were 0.3 nM and 2.1 nM, respectively.
In the case of `O=C(c1cccc(-c2nncc3nc(Nc4ccc(F)cc4F)ccc23)c1)N1CCOCC1` [Example 11, N-(2,4-difluorophenyl)-5-(3-(4-morpholinylcarbonyl)phenyl)pyrido[2,3-d]pyridazin-2-amine], the IC50 on human p38α amounted to 45 nM; in experiment [1], 79 nM.
For `Cc1ccccc1-c1nncc2nc(Nc3ccc(F)cc3F)ccc12` [Example 6, N-(2,4-difluorophenyl)-5-(2-methylphenyl)pyrido[2,3-d]pyridazin-2-amine] the same measures were 0.5 nM and 1.1 nM.
The corresponding values for `Cc1noc(C)c1-c1nncc2nc(Nc3ccc(F)cc3F)ccc12` [Example 15, N-(2,4-difluorophenyl)-5-(3,5-dimethyl-4-isoxazolyl)pyrido[2,3-d]pyridazin-2-amine] are 7.1 nM and 10 nM.
`Cc1ccccc1-c1nncc2nc(Oc3ccc(F)cc3F)ccc12` [Example 16, 2-(2,4-difluorophenoxy)-5-(2-methylphenyl)pyrido[2,3-d]pyridazine]: the IC50 at human p38α came out at 0.2 nM; in experiment [1] it was 2.3 nM.
For the compound `Cc1cc(F)ccc1Oc1ccc2c(-c3cc(C(N)=O)ccc3C)nncc2n1` [Example 23, 3-(2-(4-fluoro-2-methylphenoxy)pyrido[2,3-d]pyridazin-5-yl)-4-methylbenzamide], the IC50 at human p38α was 417 nM; in experiment [1], 1030 nM.
Take `Cc1ccccc1-c1nncc2nc(Oc3ccc(F)cc3)ccc12` [Example 19, 2-(4-fluorophenoxy)-5-(2-methylphenyl)pyrido[2,3-d]pyridazine]: the IC50 at human p38α was 0.9 nM; in experiment [1] it was 5.9 nM.
On to `Cc1cc(S(C)(=O)=O)ccc1-c1nncc2nc(Oc3ccc(F)cc3F)ccc12` [Example 17, 2-(2,4-difluorophenoxy)-5-(2-methyl-4-(methylsulfonyl)phenyl)pyrido[2,3-d]pyridazine], for which the IC50 was 0.7 nM on human p38α and 12 nM in experiment [1].
Turning to “N-(2,4-difluorophenyl)-5-(3,5-dimethyl-1H-pyrazol-4-yl)pyrido[2,3-d]pyridazin-2-amine [Example 2]”, the IC50 on human p38α was determined as 1.6 nM; in experiment [1] it was 1.8 nM.
For `Cc1cc(S(C)(=O)=O)ccc1-c1nncc2nc(Nc3ccc(F)cc3)ccc12` [Example 9, N-(4-fluorophenyl)-5-(2-methyl-4-(methylsulfonyl)phenyl)pyrido[2,3-d]pyridazin-2-amine], the IC50 at human p38α stood at 0.9 nM; in experiment [1] it was 9 nM.
In the case of `Cc1noc(C)c1-c1nncc2nc(Oc3ccc(F)cc3F)ccc12` [Example 21, 2-(2,4-difluorophenoxy)-5-(3,5-dimethyl-4-isoxazolyl)pyrido[2,3-d]pyridazine], the IC50 at human p38α is 6.5 nM; in experiment [1], 43 nM.
On to `Cc1ccc(C(N)=O)cc1-c1nncc2nc(Oc3ccc(F)cc3)ccc12` [Example 20, 3-(2-(4-fluorophenoxy)pyrido[2,3-d]pyridazin-5-yl)-4-methylbenzamide], for which the IC50 on human p38α worked out at 1.2 nM; in experiment [1], 3.1 nM.
As to `Cc1ncccc1-c1nncc2nc(Nc3ccc(F)cc3F)ccc12` [Example 8, N-(2,4-difluorophenyl)-5-(2-methyl-3-pyridinyl)pyrido[2,3-d]pyridazin-2-amine], the IC50 at human p38α was 1.2 nM; in experiment [1], 2.6 nM.
For `Fc1ccc(Oc2ccc3c(-c4cn[nH]c4)nncc3n2)c(F)c1` [Example 18, 2-(2,4-difluorophenoxy)-5-(1H-pyrazol-4-yl)pyrido[2,3-d]pyridazine] the same measures were 5.1 nM and 24 nM.
For the compound `Cc1n[nH]cc1-c1nncc2nc(Nc3ccc(F)cc3F)ccc12` [Example 14, N-(2,4-difluorophenyl)-5-(3-methyl-1H-pyrazol-4-yl)pyrido[2,3-d]pyridazin-2-amine], the IC50 turned out to be 1.1 nM on human p38α and 2.7 nM in experiment [1].
For `Cn1cc(-c2nncc3nc(Nc4ccc(F)cc4F)ccc23)cn1` [Example 12, N-(2,4-difluorophenyl)-5-(1-methyl-1H-pyrazol-4-yl)pyrido[2,3-d]pyridazin-2-amine] the same measures were 5.6 nM and 13 nM.
For `Cc1ccc(C(N)=O)cc1-c1nncc2nc(Oc3ccc(F)cc3F)ccc12` [Example 5, 3-(2-(2,4-difluorophenoxy)pyrido[2,3-d]pyridazin-5-yl)-4-methylbenzamide] the same measures were 0.3 nM and 1 nM.
`Cc1cc(S(C)(=O)=O)ccc1-c1nncc2nc(Nc3ccc(F)cc3F)ccc12` [Example 7, N-(2,4-difluorophenyl)-5-(2-methyl-4-(methylsulfonyl)phenyl)pyrido[2,3-d]pyridazin-2-amine]: the IC50 is 0.5 nM at human p38α and 2.6 nM in experiment [1].
Regarding `Fc1ccc(Nc2ccc3c(-c4cn[nH]c4)nncc3n2)c(F)c1` [Example 13, N-(2,4-difluorophenyl)-5-(1H-pyrazol-4-yl)pyrido[2,3-d]pyridazin-2-amine], the IC50 at human p38α stood at 3.5 nM; in experiment [1] it was 2.3 nM.
